Measured values from ChEMBL document CHEMBL3120093 (J Med Chem, 2014).

Experiments:
[1] = Plasma concentration in dog at […], po after 24 hrs; type: ADME, organism-based, Canis lupus familiaris; set-up: dose 2.3 mg/kg, route oral
[2] = Oral bioavailability in dog at […] after 24 hrs; type: ADME, organism-based, Canis lupus familiaris; conditions: in vivo
[3] = AUC in dog at […], po after 24 hrs; type: ADME, organism-based, Canis lupus familiaris; set-up: time < 24 hr, dose 2.3 mg/kg, route oral; conditions: plasma
[4] = Plasma concentration in rat at 5 mg/kg, po after 24 hrs; type: ADME, organism-based; set-up: dose 5 mg/kg, route oral
[5] = Drug uptake in rat liver at 5 mg/kg, po after 24 hrs; type: ADME, organism-based; set-up: dose 5 mg/kg, route oral; conditions: read-out: Drug uptake
[6] = Plasma concentration in rat at 5 mg/kg, po after 4 hrs; type: ADME, organism-based; set-up: dose 5 mg/kg, route oral
[7] = Drug uptake in rat liver at 5 mg/kg, po after 4 hrs; type: ADME, organism-based; set-up: dose 5 mg/kg, route oral; conditions: read-out: Drug uptake
[8] = AUC in rat at 5 mg/kg, po after 4 hrs; type: ADME, organism-based; set-up: time < 4 hr, dose 5 mg/kg, route oral; conditions: plasma
[9] = Oral bioavailability in rat at 5 mg/kg after 24 hrs; type: ADME, organism-based; conditions: in vivo
[10] = AUC in rat at 5 mg/kg, po after 24 hrs; type: ADME, organism-based; set-up: time < 24 hr, dose 5 mg/kg, route oral; conditions: plasma
[11] = Permeability of the compound at PH 7.4 by PAMPA; type: ADME; conditions: for Papp: read-out: permeability
[12] = Plasma concentration in dog at 3.5 mg/kg, po after 24 hrs; type: ADME, organism-based, Canis lupus familiaris; set-up: dose 3.5 mg/kg, route oral
[13] = Oral bioavailability in dog at 3.5 mg/kg after 24 hrs; type: ADME, organism-based, Canis lupus familiaris; conditions: in vivo
[14] = AUC in dog at 3.5 mg/kg, po after 24 hrs; type: ADME, organism-based, Canis lupus familiaris; set-up: time < 24 hr, dose 3.5 mg/kg, route oral; conditions: plasma
[15] = Oral bioavailability in mouse at 20 mg/kg after 24 hrs; type: ADME, organism-based; conditions: plasma
[16] = AUC in mouse at 20 mg/kg, po after 24 hrs; type: ADME, organism-based; set-up: time < 24 hr, dose 20 mg/kg, route oral; conditions: plasma
[17] = Drug uptake in mouse liver at 20 mg/kg, po after 24 hrs; type: ADME, organism-based; set-up: dose 20 mg/kg, route oral; conditions: read-out: Drug uptake
[18] = Plasma concentration in mouse at 20 mg/kg, po after 24 hrs; type: ADME, organism-based; set-up: dose 20 mg/kg, route oral
[19] = Volume of distribution in mouse at 5 mg/kg, iv after 24 hrs; type: ADME, organism-based; set-up: dose 5 mg/kg, route intravenous; conditions: in vivo
[20] = Half life in mouse at 5 mg/kg, iv after 24 hrs; type: ADME, organism-based; set-up: dose 5 mg/kg, route intravenous; conditions: in vivo
[21] = Plasma concentration in dog at 3 mg/kg, po after 24 hrs; type: ADME, organism-based, Canis lupus familiaris; set-up: dose 3 mg/kg, route oral
[22] = Oral bioavailability in dog at 3 mg/kg after 24 hrs; type: ADME, organism-based, Canis lupus familiaris; conditions: plasma
[23] = AUC in dog at 3 mg/kg, po after 24 hrs; type: ADME, organism-based, Canis lupus familiaris; set-up: time < 24 hr, dose 3 mg/kg, route oral; conditions: plasma
[24] = Clearance in mouse at 5 mg/kg, iv after 24 hrs; type: ADME, organism-based; set-up: dose 5 mg/kg, route intravenous; conditions: in vivo
[25] = Volume of distribution in dog at 1 mg/kg, iv after 24 hrs; type: ADME, organism-based, Canis lupus familiaris; set-up: dose 1 mg/kg, route intravenous; conditions: in vivo
[26] = Half life in rat at 2 mg/kg, iv after 24 hrs; type: ADME, organism-based; set-up: dose 2 mg/kg, route intravenous; conditions: in vivo
[27] = Volume of distribution in rat at 2 mg/kg, iv after 24 hrs; type: ADME, organism-based; set-up: dose 2 mg/kg, route intravenous; conditions: in vivo
[28] = Clearance in rat at 2 mg/kg, iv after 24 hrs; type: ADME, organism-based; set-up: dose 2 mg/kg, route intravenous; conditions: in vivo
[29] = Clearance in rat at 2 mg/kg, iv after 4 hrs; type: ADME, organism-based; set-up: dose 2 mg/kg, route intravenous; conditions: in vivo

Compound	concentration at 4 h [6]	concentration at 4 h [7]	AUC at 4 h [8]	Papp [11]	also measured
COC(=O)N[C@H](C(=O)N1CCC[C@H]1c1nc(-c2ccc(-c3ccc(-c4c[nH]c([C@@H]5CCCN5C(=O)[C@@H](NC(=O)OC)C(C)C)n4)cc3)cc2)c[nH]1)C(C)C	661 nM	2240 nM	2.18 µM·h	49.6 ×10⁻⁶ cm/s	concentration at 24 h [1]: 26 nM; bioavailability at 24 h [2]: 108%; AUC at 24 h [3]: 11 µM·h; concentration at 24 h [4]: 18 nM; concentration at 24 h [5]: 103 nM; bioavailability [9]: 50%; AUC at 24 h [10]: 4.8 µM·h
CC[C@H](NC(=O)OC)C(=O)N1CCC[C@H]1c1ncc(-c2ccc(-c3ccc(-c4cnc([C@@H]5CCCN5C(=O)[C@H](CC)NC(=O)OC)[nH]4)cc3)cc2)[nH]1				38.4 ×10⁻⁶ cm/s	
COC(=O)N[C@H](C(=O)N1CCC[C@H]1c1ncc(-c2ccc(-c3ccc(-c4cnc([C@@H]5CCCN5C(=O)[C@@H](NC(=O)OC)[C@@H](C)OC)[nH]4)cc3)cc2)[nH]1)[C@@H](C)OC	121 nM	453 nM	0.472 µM·h	27.5 ×10⁻⁶ cm/s	
COC(=O)N[C@H](C(=O)N1CCC[C@H]1c1ncc(-c2ccc(-c3ccc(-c4cnc([C@@H]5CCCN5C(=O)[C@@H](NC(=O)OC)C5CC5)[nH]4)cc3)cc2)[nH]1)C1CC1				50 ×10⁻⁶ cm/s	
CCN(CC)[C@@H](C(=O)N1CCC[C@H]1c1ncc(-c2ccc(-c3ccc(-c4cnc([C@@H]5CCCN5C(=O)[C@H](C)NC(=O)OC)[nH]4)cc3)cc2)[nH]1)c1ccccc1	30 nM	1830 nM	0.049 µM·h	25.3 ×10⁻⁶ cm/s	concentration at 24 h [12]: 9 nM; bioavailability [13]: 66%; AUC at 24 h [14]: 1.2 µM·h; concentration at 24 h [5]: 178 nM; bioavailability [9]: 3.6%; AUC at 24 h [10]: 0.165 µM·h
CC[C@H](NC(=O)OC)C(=O)N1CCC[C@H]1c1ncc(-c2ccc(-c3ccc(-c4cnc([C@@H]5CCCN5C(=O)[C@@H](c5ccccc5)N(CC)CC)[nH]4)cc3)cc2)[nH]1		471 nM		36.3 ×10⁻⁶ cm/s	concentration at 24 h [5]: 132 nM; bioavailability [9]: 4.3%
CCN(CC)[C@@H](C(=O)N1CCC[C@H]1c1ncc(-c2ccc(-c3ccc(-c4cnc([C@@H]5CCCN5C(=O)[C@@H](NC(=O)OC)C(C)C)[nH]4)cc3)cc2)[nH]1)c1ccccc1	13 nM	1230 nM	0.034 µM·h	70.6 ×10⁻⁶ cm/s	
O=C([C@@H](c1ccccc1)N1CCCC1)N1CCC[C@H]1c1ncc(-c2ccc(-c3ccc(-c4cnc([C@@H]5CCCN5C(=O)[C@@H](c5ccccc5)N5CCCC5)[nH]4)cc3)cc2)[nH]1	0.7 nM	80 nM	0.005 µM·h	3.6 ×10⁻⁶ cm/s	
O=C([C@@H](c1ccccc1)N1CCOCC1)N1CCC[C@H]1c1ncc(-c2ccc(-c3ccc(-c4cnc([C@@H]5CCCN5C(=O)[C@@H](c5ccccc5)N5CCOCC5)[nH]4)cc3)cc2)[nH]1	11 nM	239 nM	0.054 µM·h	34.9 ×10⁻⁶ cm/s	
CCN(CC)[C@@H](C(=O)N1CCC[C@H]1c1ncc(-c2ccc(-c3ccc(-c4cnc([C@@H]5CCCN5C(=O)[C@@H](c5ccccc5)N5CCCCC5)[nH]4)cc3)cc2)[nH]1)c1ccccc1				33.7 ×10⁻⁶ cm/s	
COC(=O)N[C@@H](C(=O)N1CCC[C@H]1c1ncc(-c2ccc(-c3ccc(-c4cnc([C@@H]5CCCN5C(=O)CNC(C)=O)[nH]4)cc3)cc2)[nH]1)c1ccccc1				1.2 ×10⁻⁶ cm/s	
COC(=O)N[C@@H](C(=O)N1CCC[C@H]1c1ncc(-c2ccc(-c3ccc(-c4cnc([C@@H]5CCCN5C(=O)[C@@H](C)NC(C)=O)[nH]4)cc3)cc2)[nH]1)c1ccccc1				2.8 ×10⁻⁶ cm/s	
COC(=O)N[C@@H](C(=O)N1CCC[C@H]1c1ncc(-c2ccc(-c3ccc(-c4cnc([C@@H]5CCCN5C(=O)[C@H](C)NC(C)=O)[nH]4)cc3)cc2)[nH]1)c1ccccc1				10 ×10⁻⁶ cm/s	
COC(=O)N[C@@H](C)C(=O)N1CCC[C@H]1c1ncc(-c2ccc(-c3ccc(-c4cnc([C@@H]5CCCN5C(=O)[C@H](NC(=O)OC)c5ccccc5)[nH]4)cc3)cc2)[nH]1				36.3 ×10⁻⁶ cm/s	
COC(=O)N[C@@H](C)C(=O)N1CCC[C@H]1c1ncc(-c2ccc(-c3ccc(-c4cnc([C@@H]5CCCN5C(=O)[C@H](C)NC(=O)OC)[nH]4)cc3)cc2)[nH]1	57 nM	134 nM	0.281 µM·h	20.7 ×10⁻⁶ cm/s	
COC(=O)N[C@H](C)C(=O)N1CCC[C@H]1c1ncc(-c2ccc(-c3ccc(-c4cnc([C@@H]5CCCN5C(=O)[C@@H](C)NC(=O)OC)[nH]4)cc3)cc2)[nH]1				4.7 ×10⁻⁶ cm/s	
CCOC(=O)N[C@@H](C)C(=O)N1CCC[C@H]1c1ncc(-c2ccc(-c3ccc(-c4cnc([C@@H]5CCCN5C(=O)[C@H](C)NC(=O)OCC)[nH]4)cc3)cc2)[nH]1				45.1 ×10⁻⁶ cm/s	
COC(=O)NC(C)(C)C(=O)N1CCC[C@H]1c1ncc(-c2ccc(-c3ccc(-c4cnc([C@@H]5CCCN5C(=O)C(C)(C)NC(=O)OC)[nH]4)cc3)cc2)[nH]1				2.6 ×10⁻⁶ cm/s	
COC(=O)NC1(C(=O)N2CCC[C@H]2c2ncc(-c3ccc(-c4ccc(-c5cnc([C@@H]6CCCN6C(=O)C6(NC(=O)OC)CC6)[nH]5)cc4)cc3)[nH]2)CC1				0.2 ×10⁻⁶ cm/s	
COC(=O)NCC(=O)N1CCC[C@H]1c1ncc(-c2ccc(-c3ccc(-c4cnc([C@@H]5CCCN5C(=O)[C@H](NC(=O)OC)c5ccccc5)[nH]4)cc3)cc2)[nH]1		26.2 nM		16.4 ×10⁻⁶ cm/s	
COC(=O)N[C@@H](C(=O)N1CCC[C@H]1c1ncc(-c2ccc(-c3ccc(-c4cnc([C@@H]5CCCN5C(C)=O)[nH]4)cc3)cc2)[nH]1)c1ccccc1				50 ×10⁻⁶ cm/s	
COC(=O)N[C@@H](C(=O)N1CCC[C@H]1c1ncc(-c2ccc(-c3ccc(-c4cnc([C@@H]5CCCN5C(=O)[C@@H]5CCCO5)[nH]4)cc3)cc2)[nH]1)c1ccccc1	27 nM	802 nM	0.127 µM·h	48 ×10⁻⁶ cm/s	
CN(C)[C@@H](C(=O)N1CCC[C@H]1c1ncc(-c2ccc(-c3ccc(-c4cnc([C@@H]5CCCN5C(=O)[C@H]5CCCO5)[nH]4)cc3)cc2)[nH]1)c1ccccc1				15.8 ×10⁻⁶ cm/s	bioavailability [15]: 6%; AUC at 24 h [16]: 1.42 µM·h; concentration at 24 h [17]: 539 nM; concentration at 24 h [18]: 25 nM; Vd [19]: 14 L/kg; half-life [20]: 7.8 h; concentration at 24 h [21]: 30 nM; bioavailability [22]: 60%; AUC at 24 h [23]: 0.436 µM·h; clearance [24]: 18 mL/min/kg; Vd [25]: 82 L/kg; half-life [26]: 14 h; Vd [27]: 60 L/kg; clearance [28]: 57 mL/min/kg
CN(C)[C@@H](C(=O)N1CCC[C@H]1c1ncc(-c2ccc(-c3ccc(-c4cnc([C@@H]5CCCN5C(=O)[C@@H]5CCCO5)[nH]4)cc3)cc2)[nH]1)c1ccccc1	27 nM	563 nM	0.062 µM·h	20 ×10⁻⁶ cm/s	
CCN(C)[C@@H](C(=O)N1CCC[C@H]1c1ncc(-c2ccc(-c3ccc(-c4cnc([C@@H]5CCCN5C(=O)[C@@H](c5ccccc5)N(C)CC)[nH]4)cc3)cc2)[nH]1)c1ccccc1	2 nM	1980 nM	0.006 µM·h	10.6 ×10⁻⁶ cm/s	clearance [29]: 88 mL/min/kg
CCN(CC)[C@@H](C(=O)N1CCC[C@H]1c1ncc(-c2ccc(-c3ccc(-c4cnc([C@@H]5CCCN5C(=O)[C@@H](c5ccccc5)N(CC)CC)[nH]4)cc3)cc2)[nH]1)c1ccccc1	6 nM	1090 nM	0.013 µM·h	25.5 ×10⁻⁶ cm/s	clearance [29]: 4 mL/min/kg
COC(=O)N[C@@H](C(=O)N1CCC[C@H]1c1ncc(-c2ccc(-c3ccc(-c4cnc([C@@H]5CCCN5C(=O)[C@H](NC(=O)OC)c5ccccc5)[nH]4)cn3)cc2)[nH]1)c1ccccc1				17.7 ×10⁻⁶ cm/s	
COC(=O)N[C@@H](C(=O)N1CCC[C@H]1c1ncc(-c2ccc(-c3ccc(-c4cnc([C@@H]5CCCN5C(=O)[C@H](NC(=O)OC)c5ccccc5)[nH]4)nc3)cc2)[nH]1)c1ccccc1				17.9 ×10⁻⁶ cm/s	
COC(=O)N[C@@H](C(=O)N1CCC[C@H]1c1ncc(-c2ccc(-c3ncc(-c4cnc([C@@H]5CCCN5C(=O)[C@H](NC(=O)OC)c5ccccc5)[nH]4)cn3)cc2)[nH]1)c1ccccc1				18.6 ×10⁻⁶ cm/s	bioavailability [9]: 0.5%; half-life [26]: 1.7 h; AUC at 24 h [10]: 0.021 µM·h; Vd [27]: 1.7 L/kg; clearance [28]: 36 mL/min/kg
O=C(C(c1ccccc1)N1CC[C@H](F)C1)N1CCC[C@H]1c1ncc(-c2ccc(-c3ccc(-c4cnc([C@@H]5CCCN5C(=O)C(c5ccccc5)N5CC[C@H](F)C5)[nH]4)cc3)cc2)[nH]1 (stereo in doubt; 21)					permeability [11]: impermeable
